The values that follow come from patent US8937084B2, “Nitrogen containing morphinan derivatives and the use thereof” (Purdue Pharma L.P., priority 2012, dated 2015).

The structures appear in SMILES notation.

Test [1] concerns the target μ-opioid receptor (Homo sapiens (Human), UniProt P35372). The test can be described thus: μ-opioid receptor [35S]GTPγS functional assay, HEK-293 or CHO cells. Format: biochemical. Particulars: for EC50: GTPγS; for Emax: relative to DAMGO. How it is done:
μ-Opioid Receptor Functional Assay Procedures: [^35S]GTPγS functional assays were conducted using freshly thawed μ-receptor membranes prepared in-house from a cell line expressing recombinant μ opioid receptor in a HEK-293, CHO or U-2 OS cell background, or purchased from a commercial source (Perkin Elmer, Shelton, Conn.; or DiscovRx, Fremont, Calif.). Assay reactions were prepared by sequentially adding the following reagents to binding buffer (100 mM NaCl, 10 mM MgCl2, 20 mM HEPES, pH 7.4) on ice (final concentrations indicated): membrane protein (0.026 mg/mL), saponin ([…]), GDP ([…]) and [^35S]GTPγS (0.20 nM; Perkin Elmer, Shelton, Conn.). The prepared membrane solution (190 μl/well) was transferred to 96-shallow well polypropylene plates containing 10 μl of 20× concentrated stock solutions of the agonist [D-Ala^2, N-methyl-Phe^4 Gly-ol^5]-enkephalin (DAMGO) prepared in dimethyl sulfoxide (DMSO). Plates were incubated for 30 min at about 25° C. with shaking. Reactions were terminated by rapid filtration onto 96-well Unifilter GF/B filter plates (Perkin Elmer, Shelton, Conn.) using a 96-well tissue harvester (Perkin Elmer, Shelton, Conn.) followed by three filtration washes with 200 μl of ice-cold wash buffer (10 mM NaH2PO4, 10 mM Na2HPO4, pH 7.4). Filter plates were subsequently dried at 50° C. for 2-3 hours. BetaScint scintillation cocktail (Perkin Elmer, Shelton, Conn.) was added (50 μl/well) and plates were counted using a Packard Top-Count for 1 min/well. Data were analyzed using the sigmoidal dose-response curve fitting functions in GraphPad PRISM v. 3.0, or an in-house function for non-linear, sigmoidal dose-response curve-fitting.
μ-Opioid Receptor Functional Data: μ GTP EC50 is the concentration of a compound providing 50% of the maximal response for the compound at a μ-opioid receptor.
μ GTP Emax (%) is the maximal effect elicited by a compound relative to the effect elicited by DAMGO, a standard μ agonist. Generally, the μ GTP Emax (%) value measures the efficacy of a compound to treat or prevent pain or other Conditions.
(§1) In TABLE 2, activity response of certain Compounds of the Invention to the μ-, δ- and κ-opioid receptors was determined as described above for functional assays using HEK-293 or CHO cells.

The target in test [2] is δ opioid receptor (Homo sapiens (Human), UniProt P41143). The test can be described thus: δ-opioid receptor radioligand dose-displacement binding assay ([3H]-Naltrindole). How it is done: δ-Oploid Receptor Binding Assay Procedures: δ-Opioid Receptor Binding Assay Procedures were conducted as follows. Radioligand dose-displacement assays used 0.3 nM [^3H]-Naltrindole (Perkin Elmer, Shelton, Conn.; 33.0 Ci/mmole) with 5 μg membrane protein (Perkin Elmer, Shelton, Conn.) in a final volume of 500 μl binding buffer (5 mM MgCl2, 5% DMSO, 50 mM Trizma base, pH 7.4). Non-specific binding was determined in the presence of 25 μM unlabeled naloxone. All reactions were performed in 96-deep well polypropylene plates for 1 hour at a temperature of about 25° C. Binding reactions were terminated by rapid filtration onto 96-well Unifilter GF/C filter plates (Perkin Elmer, Shelton, Conn.) presoaked in 0.5% polyethylenimine (Sigma). Harvesting was performed using a 96-well tissue harvester (Perkin Elmer, Shelton, Conn.) followed by five filtration washes with 500 μl ice-cold binding buffer. Filter plates were subsequently dried at 50° C. for 1-2 hours. Fifty μl/well scintillation cocktail (Perkin Elmer, Shelton, Conn.) was added and plates were counted in a Packard Top-Count for 1 min/well.
Chain of δ opioid receptor (P41143 whole entry, looked up): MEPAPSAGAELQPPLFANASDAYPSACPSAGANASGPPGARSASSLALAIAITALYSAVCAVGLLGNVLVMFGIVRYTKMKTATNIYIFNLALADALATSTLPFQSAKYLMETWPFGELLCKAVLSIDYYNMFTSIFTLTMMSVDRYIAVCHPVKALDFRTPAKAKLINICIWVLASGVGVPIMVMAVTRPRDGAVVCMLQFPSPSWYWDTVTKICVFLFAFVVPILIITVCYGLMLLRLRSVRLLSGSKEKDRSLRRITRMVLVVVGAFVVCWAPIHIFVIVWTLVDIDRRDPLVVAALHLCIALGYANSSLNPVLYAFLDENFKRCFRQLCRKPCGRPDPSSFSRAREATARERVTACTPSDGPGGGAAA
(§2) In TABLE 1, binding affinity of certain Compounds of the Invention to the μ-, δ- and κ-opioid receptors was determined as described above.

For test [3], the target named is recombinant human kappa opioid receptor (κ) (Homo sapiens (Human), UniProt P41145). The test can be described thus: κ-opioid receptor radioligand dose-displacement binding assay ([3H]-U69,593). The protocol:
κ-Opioid Receptor Binding Assay Procedures: Membranes from HEK-293 cells, CHO or U-2 OS cells expressing the recombinant human kappa opioid receptor (κ) (cloned in house) were prepared by lysing cells in ice cold hypotonic buffer (2.5 mM MgCl2, 50 mM HEPES, pH 7.4) (10 mL/10 cm dish) followed by homogenization with a tissue grinder/Teflon pestle. Membranes were collected by centrifugation at 30,000×g for 15 min at 4° C. and pellets were resuspended in hypotonic buffer to a final concentration of 1-3 mg/mL. Protein concentrations were determined using the BioRad protein assay reagent with bovine serum albumen as standard. Aliquots of κ receptor membranes were stored at −80° C.
Radioligand dose displacement assays used 0.4 nM [^3H]-U69,593 (GE Healthcare, Piscataway, N.J.; 40 Ci/mmole) with 15 μg membrane protein (recombinant κ opioid receptor expressed in HEK 293 cells; in-house prep) in a final volume of 200 μl binding buffer (5% DMSO, 50 mM Trizma base, pH 7.4). Non-specific binding was determined in the presence of 10 μM unlabeled naloxone or U69,593. All reactions were performed in 96-well polypropylene plates for 1 hour at a temperature of about 25° C. Binding reactions were terminated by rapid filtration onto 96-well Unifilter GF/C filter plates (Perkin Elmer, Shelton, Conn.) presoaked in 0.5% polyethylenimine (Sigma). Harvesting was performed using a 96-well tissue harvester (Perkin Elmer, Shelton, Conn.) followed by five filtration washes with 200 μl ice-cold binding buffer. Filter plates were subsequently dried at 50° C. for 1-2 hours. Fifty μl/well scintillation cocktail (Perkin Elmer, Shelton, Conn.) was added and plates were counted in a Packard Top-Count for 1 min/well.
as §2

Test [4] concerns the target κ opioid receptor (Homo sapiens (Human), UniProt P41145). Kind of test: κ-opioid receptor [35S]GTPγS functional assay, HEK-293 or CHO cells. Type of test: biochemical. Particulars: for EC50: GTPγS; for Emax: relative to U69,593. How it is done: κ-Opioid Receptor Functional Assay Procedures: Functional [^35S]GTPγS binding assays were conducted as follows. κ opioid receptor membrane solution was prepared by sequentially adding final concentrations of 0.026 μg/μl κ membrane protein (in-house), 10 μg/mL saponin, 3 μM GDP and 0.20 nM [^35S]GTPγS to binding buffer (100 mM NaCl, 10 mM MgCl2, 20 mM HEPES, pH 7.4) on ice. The prepared membrane solution (190 μl/well) was transferred to 96-shallow well polypropylene plates containing 10 μl of 20× concentrated stock solutions of agonist prepared in DMSO. Plates were incubated for 30 min at a temperature of about 25° C. with shaking. Reactions were terminated by rapid filtration onto 96-well Unifilter GF/B filter plates (Perkin Elmer, Shelton, Conn.) using a 96-well tissue harvester (Packard) and followed by three filtration washes with 200 μl ice-cold binding buffer (10 mM NaH2PO4, 10 mM Na2HPO4, pH 7.4). Filter plates were subsequently dried at 50° C. for 2-3 hours. Fifty μl/well scintillation cocktail (Perkin Elmer, Shelton, Conn.) was added and plates were counted in a Packard Top-Count for 1 min/well.
κ-Oploid Receptor Functional Data: κ GTP EC50 is the concentration of a compound providing 50% of the maximal response for the compound at a K receptor.
κ GTP Emax (%) is the maximal effect elicited by a compound relative to the effect elicited by U69,593.
as §1

As to `NC(=O)CN1C[C@H]2[C@H]3Cc4ccc(O)cc4[C@@]2(CCN3CC2CC2)CC1=O` [Compound 4, 2-((4aS,5R,10bS)— 13-(cyclopropylmethyl)-9-hydroxy-2-oxo-4,4-a,5,6-tetrahydro-1H-5,10b-(epiminoethano)benzo[f]isoquinolin-3(2H)-yl)acetamide], the EC50 in test [1] was determined as 9.11 ± 1.22 nM; in test [4] it was 80.8 ± 5.95 nM. Moreover, the Emax in test [1] was found to be 24%; in test [4], 62%. Further, the results for the Ki in test [2] and in test [3] were 49 ± 17.7 nM and 0.55 ± 0.08 nM, respectively.

As to `O=C1C[C@]23CCN(CC4CC4)[C@H](Cc4ccc(O)cc42)[C@@H]3CN1Cc1ccc(O)cc1` [Compound 5, (4aS,5R,10bS)-13-(cyclopropylmethyl)-9-hydroxy-3-(4-hydroxybenzyl)-4,4-a,5,6-tetrahydro-1H-5,10b-(epiminoethano)benzo[f]isoquinolin-2(3H)-one], the EC50 in test [1] was determined as 45.9 ± 14 nM; in test [4], 102 ± 19.9 nM. The maximal response (Emax) in test [1] stood at 30%; in test [4] it was 42%. For the same compound, the Ki is 22.9 ± 8.53 nM in test [2] and 6.27 ± 1.45 nM in test [3].

Take `O=C1C[C@]23CCN(CC4CC4)[C@H](Cc4ccc(O)cc42)[C@@H]3CN1` [Compound 7, (4aS,5R,10bS)-13-(cyclopropylmethyl)-9-hydroxy-4,4-a,5,6-tetrahydro-1H-5,10b-(epiminoethano)benzo[f]isoquinolin-2(3H)-one]: the 50% effective concentration (EC50) in test [1] amounted to 13.1 ± 3.75 nM; in test [4] it was 5.1 ± 1.62 nM. For the same compound, the figures for the Emax in test [1] and in test [4] were 28.7% and 74.7%, respectively. In addition, the Ki in test [2] worked out at 15 ± 3.45 nM; in test [3], 0.18 ± 0.02 nM.

As for `O=C(O)CN1C[C@H]2[C@H]3Cc4ccc(O)cc4[C@@]2(CCN3CC2CC2)CC1=O` [Compound 8, 2-((4aS,5R,10bS)-13-(cyclopropylmethyl)-9-hydroxy-2-oxo-4,4-a,5,6-tetrahydro-1H-5,10b-(epiminoethano)benzo[f]isoquinolin-3(2H)-yl)acetic acid], the values for the EC50 in test [1] and in test [4] were 6.06 ± 2.1 nM and 14.9 ± 2.71 nM, respectively. The Emax in test [1] amounted to 12.3%; in test [4] it was 66%. Also, the Ki in test [2] amounted to 82.2 ± 30.1 nM; in test [3], 4.03 ± 0.07 nM.

For `Oc1ccc2c(c1)[C@@]13CCNC[C@H]1[C@@H](C2)N(CC1CC1)CC3` [Compound 13, (4aS,5R,10bR)-13-(cyclopropylmethyl)-2,3,4,4a,5,6-hexahydro-1H-5,10b-(epiminoethano)benzo[f]isoquinolin-9-ol], the EC50 in test [1] was 29.4 ± 7.66 nM; in test [4], 29.5 ± 14.8 nM. The Emax in test [1] came to 61%; in test [4], 78.3%. For the same compound, the Ki in test [2] is 174 ± 33.7 nM; in test [3], 0.21 ± 0.04 nM.
